Measurements taken from article PMC4520450, “Procyanidins Negatively Affect the Activity of the Phosphatases of Regenerating Liver” (PLoS ONE, 2015).

Columns and labels:
PP2A [1] = system: PP2A; design: method as in PMID 22260360; settings: cited from earlier work
protein phosphatase-1 = molecular target: protein phosphatase-1; design: method as in PMID 22260360; settings: cited from earlier work
PRL-3 [2] = molecular target: T1, PRL-3 (Homo sapiens, UniProt O75365); assay: DiFMUP phosphatase activity assay for PRLs; format: biochemical; settings: for IC50: 50 nM PRL-3, 30 min preincubation, 25°C, 21 μM DiFMUP, mean ± SEM (n = 3–5), read-out: IC50 (Ki) PRL-3
T1 construct: His-TEV (cleaved yes); made in house
T1 sequence (O75365 whole entry): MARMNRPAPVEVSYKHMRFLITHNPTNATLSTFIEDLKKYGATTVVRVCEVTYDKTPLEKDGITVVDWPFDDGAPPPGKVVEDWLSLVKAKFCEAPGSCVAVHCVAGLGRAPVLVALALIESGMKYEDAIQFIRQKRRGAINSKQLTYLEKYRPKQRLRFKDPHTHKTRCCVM
Experimental: Biochemical phosphatase activity measurements were carried out in the presence of different concentrations of various polyphenols, compounds 1–11 (Fig 1), using recombinant PRL-3 and 6,8-difluoro-4-methylumbelliferyl phosphate (DiFMUP) as a fluorogenic substrate (see the experimental procedures). We observed that the monomeric epicatechins EGC and EC inhibit PRL-3 only weakly, with a slightly better activity of EGC, which bears three hydroxyl groups at the B-ring. […] In general, as a basic structure activity-relationship the following trend was observed: a higher number of hydroxyl groups at the B-ring increased the activity slightly. […] The influence of the stereochemistry at C(2)–C(3) was studied by using GCG (the trans-epimer of EGCG).
(§1) Fig 2 Effect of polyphenolic compounds 8 (A), 9 (B), 10 (C) and 11 (D) on the phosphatase activity of PRL-1, PRL-2, PRL-3, PP1, and PP2A. Proteins were incubated for 30 min with 0–1000 μM of the corresponding procyandin 8–11. Phosphatase activity was measured in the presence of DiFMUP at 25°C using the concentration corresponding to the KM of each protein. The KM for PRLs was determined separately (PRL-3 = 21 μM, PRL-2 and PRL-1 = 24 μM). The KM for PP1 (91 μM) and for PP2A (100 μM) was taken from the literature. Protein concentrations are 50 nM for all PRLs and 2 mU for PP1 and 0.05 U for PP2A (see the Experimental Procedures). Phosphatase activity in the absence of inhibitors was set as 100%. Data represent means ± standard errors of the mean (n = 3–5).
(§2) DiFMUP assay for PRLs: In a final reaction volume of 100 μL the PRLs (50 nM final concentration) were incubated with decreasing concentrations of the inhibitory polyphenols for 30 minutes at 25°C. The buffer conditions were 108 mM TrisCl (pH 7.5), Triton 0.05% (v/v), DTT 27.0 mM, NaCl 811 mM. After the incubation time 20 μL DiFMUP (6,8-Difluoro-4-methylumbelliferyl phosphate) was added to reach a final concentration of 21 μM for PRL-3 and 24 μM for PRL-1 and PRL-2. On a Tecan safire2 (Tecan, Salzburg, Austria) plate reader dephosphorylation of the substrate to its fluorescent product was monitored by following the emission at 358 nm with excitation at 452 nm for 20 minutes. All measurements were done in triplicates, and the experiments were repeated at least three times. The slopes of the initial phases were obtained by linear regression of the data points. The normalized reaction rates were plotted versus the log of the inhibitor concentrations and the IC50 values were obtained by fitting the curves using the one site competition model of GraphPad Prism (GraphPad Software, Version 5). KM values were determined by measuring reaction kinetics of substrate dilution series. Initial velocities were plotted against DiFMUP concentration and the data was analyzed by Michaelis-Menten kinetics curve fitting of GraphPad Prism. A final DMSO content of 0.4% was maintained for the monomeric catechins. Due to the high water solubility of the procyanidins DMSO was not required and measurements were done in assay buffer only.

PP1 = molecular target: T2, PP1 (Oryctolagus cuniculus, UniProt P62139); assay: DiFMUP assay for PP1; format: biochemical
T2 construct: purchased NewEngland Biolabs; host or cells: E. coli
T2 sequence (P62139 whole entry): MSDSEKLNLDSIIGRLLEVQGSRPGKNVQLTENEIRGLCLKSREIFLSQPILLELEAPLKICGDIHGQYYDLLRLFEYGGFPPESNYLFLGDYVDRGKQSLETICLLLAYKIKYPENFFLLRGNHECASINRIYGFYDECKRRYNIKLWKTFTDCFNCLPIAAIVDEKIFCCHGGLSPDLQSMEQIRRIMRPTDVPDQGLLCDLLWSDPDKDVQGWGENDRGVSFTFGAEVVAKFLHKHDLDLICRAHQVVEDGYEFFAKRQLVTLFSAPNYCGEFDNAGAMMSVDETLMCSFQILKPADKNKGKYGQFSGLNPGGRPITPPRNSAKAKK
Experimental: as §1
(§3) BSA, which is usually supplemented to the assay buffer for stabilizing the PPs was however excluded, as BSA is known to form complexes with polyphenolic compounds [40–42] and thus would decrease the concentrations of the inhibitor in the assay. […] In contrast, the phosphatase activity of PP2A was suppressed to a much lesser extent with weak (for trimer 9 and hexamer 11) and strong statistical significance (dimer 8 and tetramer 10). Thus our results corroborate the data reported previously.
DiFMUP assay for PP1: In a final reaction volume of 100 μL PP1c (2 mU final concentration, according to manufacturer’s instructions) were incubated with decreasing concentrations of the inhibitory polyphenols for 30 minutes at 25°C. The assay buffer contained 25 mM imidazole (pH 7.4), 1 mM dithiothreitol (DTT), and 50 mM NaCl. Bovine serum albumin (BSA) was excluded due to possible binding of the polyphenolic compounds. After the incubation time 20 μL DiFMUP (6,8-Difluoro-4-methylumbelliferyl phosphate) was added to reach a final concentration of 100 μM. Monitoring of the fluorescent dephosphorylation product was monitored and data analyzed as described above.

PP2A [3] = molecular target: T3, PP2A (Homo sapiens, UniProt P67775); assay: DiFMUP assay for PP2A; format: biochemical; settings: 0.05 U PP2A, 30 min preincubation, 25°C, no BSA, mean ± SEM (n = 3–5), read-out: IC50 (Ki) PP2A
T3 construct: purified from human red blood cells; purchased Merck Millipore; host or cells: human red blood cells
T3 sequence (P67775 whole entry): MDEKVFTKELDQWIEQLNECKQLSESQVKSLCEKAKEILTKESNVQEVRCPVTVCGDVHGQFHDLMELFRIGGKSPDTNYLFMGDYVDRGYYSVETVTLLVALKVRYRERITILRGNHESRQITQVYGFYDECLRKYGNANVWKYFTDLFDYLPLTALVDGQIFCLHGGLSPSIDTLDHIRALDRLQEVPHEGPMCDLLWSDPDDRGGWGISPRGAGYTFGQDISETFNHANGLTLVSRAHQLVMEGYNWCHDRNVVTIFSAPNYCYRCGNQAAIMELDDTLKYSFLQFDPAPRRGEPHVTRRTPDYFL
T3 sequence (P30153 2-589 partner limits assumed): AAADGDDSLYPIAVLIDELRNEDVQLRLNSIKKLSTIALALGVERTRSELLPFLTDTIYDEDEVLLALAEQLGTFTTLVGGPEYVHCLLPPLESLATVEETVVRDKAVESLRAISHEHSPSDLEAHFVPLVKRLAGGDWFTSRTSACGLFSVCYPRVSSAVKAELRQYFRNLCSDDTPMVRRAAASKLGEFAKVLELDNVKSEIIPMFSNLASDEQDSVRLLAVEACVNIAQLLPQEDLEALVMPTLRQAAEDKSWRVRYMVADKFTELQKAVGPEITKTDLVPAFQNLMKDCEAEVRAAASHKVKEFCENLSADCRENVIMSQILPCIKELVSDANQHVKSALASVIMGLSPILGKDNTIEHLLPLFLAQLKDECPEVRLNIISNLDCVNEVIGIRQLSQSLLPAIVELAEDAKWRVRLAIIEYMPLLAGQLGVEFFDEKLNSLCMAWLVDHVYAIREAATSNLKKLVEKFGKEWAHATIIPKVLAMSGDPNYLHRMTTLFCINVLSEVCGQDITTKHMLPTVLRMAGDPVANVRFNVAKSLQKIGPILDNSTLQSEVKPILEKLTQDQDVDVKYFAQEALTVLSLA
Experimental: as §1, §3
Chemicals and vendors were as follows: Synthesis of Procyanidins (dimer to dodecamer) was done as previously reported. EGCG, EGC, ECG and EC were synthesized as previously reported or purchased from Sigma. (+)-Catechin and 3-(4,5-dimethylthiazol-2-yl)-2,5-diphenyltetrazolium bromide (MTT) were obtained from Sigma. 6,8-Difluoro-4-Methylumbelliferyl Phosphate (DiFMUP), propidium iodide and calcein AM were from lifescience technologies. Cell dissociation solution (10X) was purchased from amsbio. PP1c (recombinant from E. coli) was purchased from NewEngland Biolabs and PP2A (purified from human red blood cells, contains different subunits according to manufacturer) from Merck Millipore. Transwell plates (BRANDplates) and insert stripes for the migration assay were purchased from Brand GmbH. Black 96 well plates (96F Nunclon Delta) were purchased from Thermo Scientific. Transparent 96 well assay plates with UV transparent bottom were purchased from Corning Inc. Wound healing experiments were carried out with μ-dish 35 mm culture inserts, which were purchased from Ibidi.
DiFMUP assay for PP2A: In a final reaction volume of 100 μL PP2A (0.05 U final concentration, according to manufacturer’s instructions) were incubated with decreasing concentrations of the inhibitory polyphenols for 30 minutes at 25°C. The assay buffer contained 50 mM TrisCl (pH 7.5), 250 mM NaCl, 0.1 mM EDTA, 1 mM MnCl2, and 2 mM dithiothreitol (DTT). […] Monitoring of the fluorescent dephosphorylation product was monitored and data analyzed as described above.

PRL-1 [4] = molecular target: T4, PRL-1 (Homo sapiens, UniProt Q93096); assay: DiFMUP phosphatase activity assay for PRLs; format: biochemical; settings: 50 nM PRL-1, 30 min preincubation, 25°C, 24 μM DiFMUP; mean ± SEM (n = 3–5); read-out: IC50 (Ki) PRL-1
T4 construct: His-TEV (cleaved yes); made in house
T4 sequence (Q93096 1-173): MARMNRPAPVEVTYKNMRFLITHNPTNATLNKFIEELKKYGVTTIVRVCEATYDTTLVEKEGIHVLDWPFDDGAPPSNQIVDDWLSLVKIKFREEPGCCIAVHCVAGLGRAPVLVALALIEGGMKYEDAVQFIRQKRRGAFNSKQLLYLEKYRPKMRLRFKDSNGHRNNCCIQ
Experimental: as §1, §2

PRL-2 = molecular target: T5, PRL-2 (Homo sapiens, UniProt Q12974); assay: DiFMUP phosphatase activity assay for PRLs; format: biochemical; settings: 50 nM PRL-2, 30 min preincubation, 25°C, 24 μM DiFMUP; mean ± SEM (n = 3–5); read-out: IC50 (Ki) PRL-2
T5 construct: His-TEV (cleaved yes); made in house
T5 sequence (Q12974 1-167): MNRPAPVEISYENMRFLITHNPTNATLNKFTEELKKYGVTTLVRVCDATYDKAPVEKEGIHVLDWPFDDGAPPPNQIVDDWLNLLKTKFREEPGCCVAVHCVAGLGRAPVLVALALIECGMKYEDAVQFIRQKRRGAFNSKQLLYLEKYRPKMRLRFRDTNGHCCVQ
Experimental: as §1, §2

PRL-1 [5] = molecular target: T4, PRL-1; assay: DiFMUP phosphatase activity assay for PRLs; format: biochemical; settings: Michaelis-Menten and Lineweaver-Burk analysis, DiFMUP hydrolysis
PRL-3 [6] = molecular target: T1, PRL-3; design: method as in PMID 20873564; settings: cited from earlier work
Caco-2 cell model = system: Caco-2 cell model; design: method as in PMID 23885956; settings: cited from earlier work
[7] = Michaelis-Menten and Lineweaver-Burk analysis, DiFMUP hydrolysis

SMILES: O=C(O[C@@H]1Cc2c(O)cc(O)cc2O[C@@H]1c1cc(O)c(O)c(O)c1)c1cc(O)c(O)c(O)c1 [EGCG (4)]
- activity toward PP2A relative to PP1 (PP2A [1]): ten-fold lower activity
- IC50 (protein phosphatase-1): 1.35 µM
- increase in PRL-3 inhibition of 3-gallate ester compared to non-gallate (2 vs 1, 4 vs 3) (PRL-3 [2]): about two-fold increase
- IC50 (PRL-3 [2]): 121 ± 5.7 µM

SMILES: Oc1cc(O)c2c(c1)O[C@H](c1ccc(O)c(O)c1)[C@@H](O)[C@@H]2c1c(O)cc(O)c2c1O[C@H](c1ccc(O)c(O)c1)[C@@H](O)[C@@H]2c1c(O)cc(O)c2c1O[C@H](c1ccc(O)c(O)c1)[C@@H](O)[C@@H]2c1c(O)cc(O)c2c1O[C@H](c1ccc(O)c(O)c1)[C@@H](O)C2 [Tetramer (10)]
- IC50 (PP1; 2 mU PP1c, 30 min preincubation, 25°C, DiFMUP, no BSA, mean ± SEM (n = 3–5), read-out: IC50 (Ki) PP1): 13.8 ± 2.9 µM
- type of inhibition, PP1 (PP1; [7]): noncompetitive
- IC50 (PP2A [3]): 77.9 ± 10.7 µM
- IC50 (PRL-1 [4]): 2.2 ± 1.1 µM
- IC50 (PRL-2): 13.4 ± 2.5 µM
- type of inhibition, PRL-1 (PRL-1 [5]): noncompetitive
- IC50 (PRL-3 [2]): 16.3 ± 2.3 µM
- type of inhibition, PRL-3 (PRL-3 [2]; [7]): noncompetitive

SMILES: O=c1c(O)c(-c2ccc(O)c(O)c2)oc2c(O[C@@H]3O[C@H](CO)[C@@H](O)[C@H](O)[C@H]3O)c(O)cc(O)c12 [gossypin]
- PRL-3 phosphatase inhibition in vitro (PRL-3 [6]): moderate phosphatase inhibition

SMILES: O=c1c(O)c(-c2cc(O)c(O)c(O)c2)oc2cc(O)cc(O)c12 [myricetin]
- PRL-3 phosphatase inhibition in vitro (PRL-3 [6]): moderate phosphatase inhibition

SMILES: Oc1cc(O)c2c(c1)O[C@H](c1ccc(O)c(O)c1)[C@H](O)[C@H]2c1c(O)cc(O)c2c1O[C@H](c1ccc(O)c(O)c1)[C@H](O)[C@H]2c1c(O)cc(O)c2c1O[C@H](c1ccc(O)c(O)c1)[C@H](O)C2 [procyanidin C1, reference compound]
- permeation (Caco-2 cell model): no permeation was detected
